The NIST ThermoML archive (doi:10.1021/je5004719)

Test: xn = mol fraction of the nth substance listed
Conditions: 101 kPa, Liquid; for speed of sound: Sing-around technique in a fixed-path interferometer; for mass density: Vibrating tube method

Cc1ccccc1C [1,2-dimethylbenzene] + C1CCOCC1
Conditions	mass density, 298.15 K [kg/m3]	mass density, 303.15 K [kg/m3]	speed of sound, 298.15 K [m/s]	speed of sound, 303.15 K [m/s]
x2 = 0.0908	876.43	872.06	1345.3	1323.7
x2 = 0.1432	876.68	872.25	1343.1	1321
x2 = 0.1897	876.87	872.4	1340.4	1317.9
x2 = 0.2318	877.04	872.53	1337.4	1314.7
x2 = 0.2953	877.26	872.71	1332.1	1309.2
x2 = 0.331	877.39	872.81	1328.8	1305.9
x2 = 0.3872	877.57	872.95	1323.2	1300.4
x2 = 0.4287	877.7	873.05	1319	1296.2
x2 = 0.4792	877.86	873.17	1313.7	1291
x2 = 0.5187	877.99	873.26	1309.6	1286.9
x2 = 0.5725	878.16	873.38	1304.1	1281.4
x2 = 0.6182	878.31	873.48	1299.5	1276.8
x2 = 0.6682	878.47	873.58	1294.6	1272
x2 = 0.7187	878.62	873.67	1290	1267.3
x2 = 0.7729	878.78	873.77	1285.3	1262.5
x2 = 0.8367	878.94	873.86	1280.2	1257.3
x2 = 0.8952	879.05	873.93	1276.1	1253.1
x2 = 0.9274	879.1	873.96	1274	1251
